# Measurements reported in patent US20260118345A1, “METHOD OF EVALUATING INTERCELLULAR INTERACTIONS IN NEUROINFLAMMATION” (FUJIFILM Corporation, priority 2023, published 2026).
# Tests used:
# Assay type in all cases: cell-based, human
# NF-κB [1] = test: NF-κB localization by immunostaining after LPS stimulation, two-dimensional three-cell-type co-culture of astrocytes, neurons and microglia; conditions: R-7050 10 μmol/L with LPS 100 ng/ml
# Protocol: (§1) Matrigel basement membrane matrix (Corning, 356234) diluted 120-fold with DMEM/F12 (Life technologies, 11320-033) was added to a 96-well plate at 65 μL/well and allowed to stand at 4° C. After 24 hours, the culture medium was replaced with a progenitor cell culture medium and used.
# Astrocyte precursor cells (XCell Science, XCS-AP-001-1V) were seeded in a 96-well plate at a density of 5×10^4 cells/well and cultured under the conditions of 37° C. and 5% CO2. The next day, the culture medium was replaced with the differentiation-inducing culture medium and further cultured for 5 days to differentiate into astrocytes.
# (§2) The neurons were produced by forcing expression of the Ngn2 gene from iPS cells (WO2014/148646A; and Zhang Y, et al., Neuron, 78:785-98, 2013), and the cells that had been frozen and stored were used. The cells that had been frozen and stored were thawed in a warm bath at 37° C., and after thawing, the cells were added to the co-culture medium and centrifuged at 600×g at room temperature for 5 minutes. After centrifugation, the supernatant was removed, the cells were suspended in 1 mL of the co-culture medium, and the number of cells was counted.
# As the microglia, iPS cell-derived microglia (iCell (registered trademark) Microglia, FCDI, C1110) were used. The cells that had been frozen and stored were thawed in a warm bath at 37° C., and after thawing, the cells were added to the co-culture medium and centrifuged at 600×g at room temperature for 5 minutes. After centrifugation, the supernatant was removed, the cells were suspended in 1 mL of the co-culture medium, and the number of cells was counted.
# The neurons and the microglia were mixed in a ratio of 3:1 and seeded on the astrocytes at 4×10^4 cells/well. The cells were cultured under the conditions of 37° C. and 5% CO2, and half of the culture medium was replaced three times a week.
# Microglia were specifically stimulated by adding LPS (FUJIFILM Wako Pure Chemical Corporation, 124-05151) at 100 ng/mL to the two-dimensional co-culture that had been cultured for 4 weeks. The cells were fixed by treating, for 30 minutes, with a formaldehyde solution (FUJIFILM Wako Pure Chemical Corporation, 061-00416) diluted 10-fold with PBS(−) (FUJIFILM Wako Pure Chemical Corporation, 166-23555) without treatment, and at 0.5 hours, 1 hour, 3 hours, 6 hours, and 24 hours after the treatment.
# In addition, in the two-dimensional co-culture that had been cultured for 19 days, LPS (FUJIFILM Wako Pure Chemical Corporation, 124-05151) was added at 100 ng/ml and R-7050 (Cayman Chemical Company, 16870), which is a TNFR1 inhibitor, was added at 10 μmol/L, and the effect of TNF-α on the intercellular interaction induced by LPS stimulation was evaluated. The cells were fixed by treating, for 30 minutes, with a formaldehyde solution (FUJIFILM Wako Pure Chemical Corporation, 061-00416) diluted 10-fold with PBS (−) (FUJIFILM Wako Pure Chemical Corporation, 166-23555) without treatment, and at 0.5 hours, 1 hour, 3 hours, 6 hours, and 24 hours after the treatment.
# The fixed cells were washed with PBS (−), and blocking and permeabilization were performed by treating with a solution (1% BSA/0.2% Triton X-100) in which BSA (Sigma-Aldrich, A4161) and Triton (registered trademark) X-100 (BioVision, 2104-100) were diluted to 1% and 0.2% with PBS (−) for 30 minutes. […]
# NF-κB [2] = test: NF-κB localization after TNF-α stimulation, two-dimensional two-cell-type co-culture of neurons and astrocytes; conditions: TNF-α 7.5 ng/mL; 3 hours after the stimulation
# Protocol: as §1
# Astrocyte precursor cells (XCell Science, XCS-AP-001-1V) were seeded in a 96-well plate at a density of 6×10^4 cells/well, cultured under the conditions of 37° C. and 5% CO2, after culture medium was replaced with the differentiation induction culture medium, further cultured for 5 days to differentiate into astrocytes.
# as §2, with “forcibly expressing” for “forcing expression of”, “genes” for “gene”, “from the” for “from”, “cells” for “cells (WO2014/148646A; and Zhang Y, et al., Neuron, 78:785-98, 2013),”
# In the two-cell-type co-culture, the neurons were seeded on the astrocytes at 3×10^4 cells/well. […]
# After 3 hours of the stimulation with TNF-α, the cells were fixed by the method described in <1> of Test Example 1, and the localization of NF-κB was evaluated by the same method as in <1> of Test Example 1.
# [3] = test system: two-cell-type co-culture of neurons and astrocytes; test: Neural activity by calcium imaging (BPM), two-dimensional two-cell-type co-culture of neurons and astrocytes; conditions: 24 hours after stimulation (TNF-α 7.5 ng/mL or LPS 100 ng/mL)
# Protocol: Matrigel basement membrane matrix (Corning, 356234) diluted 120-fold with DMEM/F12 (Life technologies, 11320-033) was added to a 96-well plate at 65 μL/well and allowed to stand at 4° C. After 24 hours, the culture medium was replaced with a progenitor cell culture medium and used. Astrocyte precursor cells (XCell Science, XCS-AP-001-1V) were seeded in a 96-well plate at a density of 6×10^4 cells/well, cultured under the conditions of 37° C. and 5% CO2, after culture medium was replaced with the differentiation induction culture medium, further cultured for 5 days to differentiate into astrocytes. […] After centrifugation, the supernatant was removed, the cells were suspended in 1 mL of the co-culture medium, and the number of cells was counted. […] In addition, at 24 hours after the stimulation with LPS or TNF-α, the neural activity was evaluated by calcium imaging. […] After incubating for 1 hour under conditions of 37° C. and 5% CO2, the solution was replaced with a warmed (37° C.) recording solution, and the fluorescence was measured for 10 minutes with FDSS (registered trademark)/μcell (Hamamatsu Photonics K. K., C13299). The neural activity was evaluated by quantifying the number of peaks of calcium oscillation using Wave Checker Software (Hamamatsu Photonics K. K.).
# [4] = test system: three-cell-type co-culture of neurons, astrocytes, and microglia; test: Neural activity by calcium imaging (BPM), two-dimensional three-cell-type co-culture of neurons, astrocytes and microglia; conditions: 24 hours after stimulation (TNF-α 7.5 ng/mL or LPS 100 ng/mL)
# Protocol: Matrigel basement membrane matrix (Corning, 356234) diluted 120-fold with DMEM/F12 (Life technologies, 11320-033) was added to a 96-well plate at 65 μL/well and allowed to stand at 4° C. After 24 hours, the culture medium was replaced with a progenitor cell culture medium and used. Astrocyte precursor cells (XCell Science, XCS-AP-001-1V) were seeded in a 96-well plate at a density of 6×10^4 cells/well, cultured under the conditions of 37° C. and 5% CO2, after culture medium was replaced with the differentiation induction culture medium, further cultured for 5 days to differentiate into astrocytes. […] After centrifugation, the supernatant was removed, the cells were suspended in 1 mL of the co-culture medium, and the number of cells was counted. […] After centrifugation, the supernatant was removed, the cells were suspended in 1 mL of the co-culture medium, and the number of cells was counted. […] In addition, at 24 hours after the stimulation with LPS or TNF-α, the neural activity was evaluated by calcium imaging. […] After incubating for 1 hour under conditions of 37° C. and 5% CO2, the solution was replaced with a warmed (37° C.) recording solution, and the fluorescence was measured for 10 minutes with FDSS (registered trademark)/μcell (Hamamatsu Photonics K. K., C13299). […]
compound,measurement,setting,value
FC(F)(F)c1nnc2c(Sc3ccccc3)nc3ccc(Cl)cc3n12 [R-7050],activation of the microglia affecting other cells (intercellular interaction),NF-κB [1],suppressed
same,"nuclear signals of NF-κB, co-localization with microglia marker IBA1","NF-κB [1]; 1, 3, and 6 hours after the LPS stimulation",all co-localized with IBA1
same,nuclear translocation of NF-κB,"NF-κB [1]; 1, 3, and 6 hours after the LPS stimulation, co-culture cultured 19 days",only some cells
TNF-α,nuclear translocation of NF-κB in GFAP-positive cells (astrocytes),NF-κB [2],occurred
same,nuclear translocation of NF-κB in Neun-positive cells (neurons),NF-κB [2],not confirmed
same,BPM (the number of peaks of calcium oscillation per minute) as compared with the control,[3],increase
same,BPM (the number of peaks of calcium oscillation per minute) as compared with the control,[4],increase
